Assay results from patent publication US20250276127A1, “THERAPEUTIC METHODS AND DEVICES” (NORWEGIAN UNIVERSITY OF SCIENCE AND TECHNOLOGY (NTNU), priority 2021, published 2025).

Experiments:
Type in all cases: in vivo, human
blood flow in the skin = assay: Local skin blood flow by laser Doppler after subcutaneous injection
Text: Likewise, the compound with glucagon activity may be administered in an amount which is effective to achieve a local vasodilatory effect, or an effect of increasing local blood flow at the site of its administration. Vasodilatory activity may be assessed, or determined, by measuring blood flow by a laser Doppler method, at an administration site on or in a human or non-human animal subject after administration of the compound. For example, the compound may be injected SC and blood flow just below the skin surface may be determined at the injection site. Such a method is described in Example 1. However, for the methods and uses herein where the compound is used for its effect in the delivery of a therapeutically active agent (e.g. insulin) or in conjunction with the operation of a sensor (e.g. glucose sensor), it is not necessary, and indeed it may be undesirable, for the compound to exert its usual therapeutic effect of increasing blood glucose, or counteracting an episode of hypoglycaemia. The amount, or dose, administered may thus be less, and indeed typically will be less, than a dose which is administered, or typically used, to treat hypoglycaemia. Doses for the compound are discussed in more detail below.
An experiment was performed on 2 young healthy adult human volunteers. The effect of subcutaneous (hereinafter, SC) injections on blood flow in the skin were tested 6 times in the 2 subjects (4 tests in a subject and 2 tests in a subject). The glucagon was administered by SC injection of 0.1 ml of 1 mg/ml glucagon (i.e. an injection containing 0.1 mg of glucagon) to sites on the lateral side of both upper arms of the subjects. Blood flow was measured on the skin surface at the site of administration by laser Doppler technology. As a control the same volume of physiological saline (0.9%) was injected as a placebo at the same sites.
This effect was further investigated in a similar experiment with varying doses of glucagon. Again, the same 2 subjects were used, and SC injections of glucagon or placebo were given 6 times (4 tests in a subject and 2 tests in a subject). The glucagon was administered to sites on the lateral sides of both upper arms in amounts of 0.1 mg, 0.015 mg and 0.01 mg (0.1 ml of glucagon at concentrations of 0.1 mg/ml, 0.015 mg/ml and 0.01 mg/ml, respectively). Blood flow was measured on the skin surface at the site of administration by laser Doppler technology. As a control the same volume of physiological saline (0.9%) was injected as a placebo at the same sites.
Further experiments were conducted to investigate the effect on local blood flow of subcutaneous injections of glucagon in the abdomen. Again, 2 subjects were used, and SC injections of glucagon or placebo were given 6 times (3 tests in a subject and 3 tests in a subject). The glucagon was administered by SC injection of 0.1 ml of 1 mg/ml glucagon (i.e. an injection containing 0.1 mg of glucagon) to sites on both sides of the abdomen of the subjects. Blood flow was measured on the skin surface at the site of administration by laser Doppler technology. As a control the same volume of physiological saline (0.9%) was injected as a placebo at the same sites.
This effect was further investigated in a similar experiment with varying doses of glucagon. Again, 2 subjects were used, and SC injections of glucagon or placebo were given 6 times (3 tests in a subject and 3 tests in a subject). The glucagon was administered to sites on both sides of the abdomen in amounts of 0.1 mg, 0.05 mg and 0.015 mg (0.1 ml of glucagon at concentrations of 0.1 mg/ml, 0.05 mg/ml and 0.015 mg/ml, respectively). Blood flow was measured on the skin surface at the site of administration by laser Doppler technology. As a control the same volume of physiological saline (0.9%) was injected as a placebo at the same sites. […]

[1] = tested on: glucose levels detected by CGM; assay: CGM (Dexcom G6) glucose sensing at meals with injection at the sensor site; details: FIG. 26
Method: This effect was further investigated in a similar experiment to investigate the effect of glucagon on the performance of CGMs. Again, 2 subjects were used showing data from 12 meals in a non-diabetic […] and 11 meals in a non-diabetic […] collected with Dexcom G6 CGMs. The subjects wore two CGMs placed symmetrically on the lateral side of each overarm. 1-3 minutes before the start of ingesting the meal 0.1 ml of glucagon (1 mg/ml) was injected at the site of one CGM and 0.1 ml of placebo (saline (0.9%) on the contralateral site of CGM. Before each meal, the site of glucagon delivery was decided by a new randomization.

local blood flow [2] = assay: Impact of injection technique (speed) on local blood flow, laser Doppler; details: abdomen
Method: To observe the impact of injection technique, and particularly speed of injection, on the effect induced by subcutaneous injection of glucagon, an experiment was conducted to compare 2 different injection techniques; one where the injection lasted 1-3 seconds (technique 1), and one where the injection lasted at least 10 seconds (technique 2). 6 injections were given with technique 1 and 4 injections were given with technique 2. In each case, 0.1 mg of glucagon (in a 0.1 ml injection) was injected subcutaneously into the abdomen of the subjects. For each technique, half of the injections were given to a subject and half to a subject. Blood flow was measured on the skin surface at the site of administration by laser Doppler technology.
In addition, in FIG. 21 the same results are shown together with the results of placebo injections of 0.1 ml of 0.9% saline using the same 2 techniques. For technique 1, 6 placebo injections were given, and for technique 2, 2 placebo injections were given. Again, half of the injections with each technique were done in a subject, and half were done in a subject.

local blood flow [3] = assay: Impact of laser Doppler probe placement on measured local blood flow; details: 0.015 mg SC, upper arms
Method: The impact of the placement of the laser Doppler probe on the measured effect of glucagon injections on local blood flow was investigated by giving injections at multiple sites with varying distances from the probe. The experiment involved the subcutaneous injection of 0.015 mg of glucagon (in 0.1 ml) or 0.1 ml of 0.9% saline as a control at sites on the lateral sides of the upper arms of the subjects. The injections were given either under the probe, 1.6 cm from the probe centre, 3 cm from the probe centre, or 5 cm from the probe centre. In each case, 6 injections were given, except for 1.6 cm from the probe centre where only 4 saline injections were given. In all cases, half of the injections were given to a subject and half to a subject, except for under the probe, where 4 tests were done on the subject and 2 on the subject. Blood flow was measured on the skin surface by laser Doppler technology.

## glucagon
Blood flow in the skin; 0.01 mg SC, lateral upper arms, FIG. 15
  increase in local blood flow relative to higher doses: similar, although less pronounced
Blood flow in the skin; 0.01 mg SC, thighs, FIG. 23/24
  effect on local blood flow relative to control injection: did not appear to have a significant effect on local blood flow
Blood flow in the skin; 0.015 mg SC, abdomen, FIG. 18/19
  effect on local blood flow relative to control injection: did not appear to have a significant effect on local blood flow
Blood flow in the skin; 0.015 mg SC, lateral upper arms, average of 6 tests, FIG. 15
  increase in local blood flow: 400-450 % of the baseline reading
Blood flow in the skin; 0.03 mg SC, thighs, FIG. 23/24
  increase in local blood flow among doses: biggest increase in local blood flow
Blood flow in the skin; 0.05 mg SC, abdomen, FIG. 18/19
  initial increase in local blood flow: did not result in a significant increase in local blood flow initially
Blood flow in the skin; 0.05 mg SC, abdomen, after 15 minutes
  local blood flow versus control injection after 15 minutes: higher than that observed at the same time after the control injection
Blood flow in the skin; 0.05 mg SC, thighs, FIG. 22
  persistence of increase in local blood flow versus control: more persistent than that observed following administration of the control
  time after which blood flow values of glucagon and placebo were approximately equal: around 30 minutes
Blood flow in the skin; 0.05 mg SC, thighs, FIG. 23/24
  increase in local blood flow versus saline control: slightly larger than that observed following administration of the saline control
  persistence of increase in local blood flow versus saline control: significantly more persistent
Blood flow in the skin; 0.05 mg SC, thighs, average of 7 tests, FIG. 22
  increase in local blood flow versus saline: slightly greater than that observed when saline was administered
Blood flow in the skin; 0.1 mg SC, abdomen, FIG. 17
  persistence of increase in local blood flow versus control: more persistent than that observed following administration of the control
  time after which blood flow values of glucagon and placebo were approximately equal: around 30 minutes
Blood flow in the skin; 0.1 mg SC, abdomen, FIG. 18/19
  initial increase in local blood flow versus control: greater than that seen following the administration of the same control
Blood flow in the skin; 0.1 mg SC, abdomen, average of 6 tests, FIG. 17
  increase in local blood flow versus saline: slightly greater than that observed when saline was administered
Blood flow in the skin; 0.1 mg SC, lateral upper arms, FIG. 14
  blood flow after returning to "normal" versus before injection: increased compared to before the glucagon injection
Blood flow in the skin; 0.1 mg SC, lateral upper arms, average of 6 tests, FIG. 14
  effect on local blood flow (flow increase): several hundred percent
Blood flow in the skin; 0.1 mg SC, lateral upper arms, average of 6 tests, FIG. 15
  increase in local blood flow: 400-450 % of the baseline reading
Blood flow in the skin; SC, upper arms, FIG. 15
  period over which the vasodilatory effect can be seen: 35 to 40 min
Blood flow in the skin; administered sub-cutaneously, small blood vessels in the skin (summary statement)
  increase of blood flow at the site of administration: several hundred percent
Blood flow in the skin; all doses (0.1, 0.015, 0.01 mg) SC, upper arms, not seen with placebo
  persistence of increase in blood flow: found to persist even once the value had stabilised
Blood flow in the skin; in certain body regions, in some subjects
  dose at which a vasodilatory effect has been observed: < 0.01 mg
Blood flow in the skin; summary of the Examples
  change in local blood flow on administration: immediate and large increase in local blood flow
Blood flow in the skin; summary of the Examples, maintained over a prolonged period
  level to which blood flow returns: higher than the baseline level before glucagon administration
[1]; 0.1 ml of 1 mg/ml injected at CGM site 1-3 minutes before meal, overarm, 23 meals
  glucose levels detected by CGM after meal versus placebo site: faster and larger increase in glucose levels detected compared to placebo
[1]; in one of the subjects
  time at which the effect on CGM glucose can be clearly seen: 10 min
Local blood flow [2]; 0.1 mg SC, technique 2, versus fast glucagon and placebo injections
  persistence of effect of the "slow" injection on local blood flow: more persistent than the effects of any of the other injections
Local blood flow [2]; 0.1 mg in 0.1 ml SC, FIG. 20/21
  increase in local blood flow, technique 2 (injection at least 10 seconds) versus technique 1 (1-3 seconds): significantly larger increase in local blood flow
Local blood flow [3]; injection 1.6 cm or 3 cm from probe centre
  effect on blood flow versus placebo: larger than placebo
Local blood flow [3]; injection 5 cm from probe centre
  effect on blood flow versus placebo: except for injection 5 cm from the probe the effect was larger than placebo
Local blood flow [3]; injection at greater distances (1.6, 3 or 5 cm from probe centre)
  increase in local blood flow, placebo subtracted: less significant
Local blood flow [3]; injection directly under the probe, FIG. 25
  increase in local blood flow, placebo subtracted: largest increase in local blood flow
